# Test results as given in patent US9233979B2, “Compounds that are ERK inhibitors” (Merck Sharp & Dohme Corp., priority 2012, dated 2016).
# Read-outs that look alike come from different tables or passages of the source.
# Target: phosphorylated active hERK2 enzyme (Homo sapiens (Human), UniProt P28482)
# Assay: Active Human ERK2 (hERK2) Activity Assay (IMAP-FP)
# Assay type: biochemical
# Details: 10 point titration, read-out: AERK2 IC50
# In short: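 IMAP fluorescence-polarization kinase assay: 0.5 nM activated hERK2 with 900 nM unlabeled plus 80 nM labeled peptide and 30 μM ATP, reacted 60 min. Quenched with IMAP beads in binding buffer with 24 mM NaCl; FP read after 60 min equilibration.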
# [1] = Table 6, 0.5 nM hERK2, 30 μM ATP
# [2] = Table 5, 0.5 nM hERK2, 30 μM ATP
# phosphorylated active hERK2 enzyme, sequence (P28482 whole entry): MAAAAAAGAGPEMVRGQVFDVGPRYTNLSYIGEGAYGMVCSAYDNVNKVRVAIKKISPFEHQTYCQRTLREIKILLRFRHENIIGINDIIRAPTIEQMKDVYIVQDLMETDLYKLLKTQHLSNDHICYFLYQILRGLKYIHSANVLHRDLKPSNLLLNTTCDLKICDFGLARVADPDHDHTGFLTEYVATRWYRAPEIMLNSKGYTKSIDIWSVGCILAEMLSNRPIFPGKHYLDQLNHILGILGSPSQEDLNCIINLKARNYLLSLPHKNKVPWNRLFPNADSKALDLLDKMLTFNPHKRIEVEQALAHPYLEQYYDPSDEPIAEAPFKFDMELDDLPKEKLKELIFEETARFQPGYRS
SMILES,IC50 [1] [nM],IC50 [2] [nM]
"CCNc1n[nH]c2cc(NC(=O)NC3COc4ccccc43)ncc12 (centres unmarked) [Example 235, 1-(2,3-dihydro-1-benzofuran-3-yl)-3-[3-(ethylamino)-1H-pyrazolo[4,3-c]pyridin-6-yl]urea]",334,
"COc1ccccc1CNC(=O)Nc1cc2[nH]nc(N)c2cn1 [Example 268, 1-(3-amino-1H-pyrazolo[4,3-c]pyridin-6-yl)-3-(2-methoxy-benzyl)urea]",10.7,
"CC(C)(O)[C@@H](NC(=O)Nc1cc2[nH]nc(NC(=O)N3CCC(F)(F)CC3)c2cn1)c1ccc(F)cc1 [Example 132, 4,4-difluoro-N-[6-({[(1S)-1-(4-fluorophenyl)-2-hydroxy-2-methylpropyl]-carbamoyl}amino)-1H-pyrazolo[4,3-c]pyridin-3-yl]-piperidine-1-carboxamide]",4.9,
"C[C@@H](NC(=O)Nc1cc2[nH]nc(NC(=O)c3cccnc3)c2cn1)c1ccccc1 [Example 211, N-[6-({[(1R)-1-phenylethyl]-carbamoyl}amino)-1H-pyrazolo[4,3-c]pyridin-3-yl]-pyridine-3-carboxamide]",3.1,
"COC[C@@H](NC(=O)Nc1cc2[nH]nc(Nc3cnn(C)c3)c2cn1)c1ccc(F)cc1 [Example 372, 1-[(1S)-1-(4-fluorophenyl)-2-methoxyethyl]-3-{3-[(1-methyl-1H-pyrazol-4-yl)-amino]-1H-pyrazolo[4,3-c]-pyridin-6-yl}urea]",14.7,
"CCOC(=O)Nc1n[nH]c2cc(NC(=O)N[C@H](C)c3ccccc3)ncc12 [Example 315, (R)-ethyl(6-(3-(1-phenylethyl)ureido)-1H-pyrazolo[4,3-c]pyridin-3-yl)carbamate]",10,
"CC(C)(O)[C@@H](NC(=O)Nc1cc2[nH]nc(N3CCOCC3)c2cn1)c1ccccc1 [Example 433, 1-[(1S)-2-hydroxy-2-methyl-1-phenylpropyl]-3-(3-morpholin-4-yl-1H-pyrazolo[4,3-c]-pyridin-6-yl)urea]",0.5,
"CC(Nc1n[nH]c2cc(NC(=O)N[C@@H](c3ccccc3)C(C)(C)O)ncc12)C(F)(F)F (stereo partly drawn) [Example 434, 1-[(1S)-2-hydroxy-2-methyl-1-phenylpropyl]-3-{3-[(2,2,2-trifluoro-1-methylethyl)-amino]-1H-pyrazolo[4,3-c]-pyridin-6-yl}urea]",0.7,
"C[C@@H](NC(=O)Nc1cc2[nH]nc(NC(=O)c3ccncc3)c2cn1)c1ccccc1 [Example 214, N-[6-({[(1R)-1-phenylethyl]-carbamoyl}amino)-1H-pyrazolo[4,3-c]pyridin-3-yl]-pyridine-4-carboxamide]",2.9,
"COC[C@@H](NC(=O)Nc1cc2[nH]nc(NC(C)C(F)(F)F)c2cn1)c1ccccc1 (stereo partly drawn) [Example 421, 1-[(1S)-2-methoxy-1-phenylethyl]-3-{3-[(2,2,2-trifluoro-1-methylethyl)-amino]-1H-pyrazolo[4,3-c]-pyridin-6-yl}urea]",0.6,
"COC(=O)Nc1n[nH]c2cc(NC(=O)NCc3ccccc3OC)ncc12 [Example 297, methyl (6-{[(2-methoxybenzyl)-carbamoyl]amino}-1H-pyrazolo[4,3-c]pyridin-3-yl)-carbamate]",2,
"C[C@@H](NC(=O)Nc1cc2[nH]nc(NC(=O)OC3CCOCC3)c2cn1)c1ccc(F)cc1 [Example 399, tetrahydro-2H-pyran-4-yl [6-({[(1R)-1-(4-fluorophenyl)ethyl]carbamoyl}amino)-1H-pyrazolo[4,3-c]pyridin-3-yl]-carbamate]",19.7,
"C[C@H](Nc1n[nH]c2cc(NC(=O)N[C@H](C)c3ccccc3)ncc12)c1ccccn1 [Example 86, 1-[(1R)-1-phenylethyl]-3-(3-{[(1S)-1-pyridin-2-ylethyl]amino}-1H-pyrazolo[4,3-c]-pyridin-6-yl)urea]",4.7,
"COCc1nc(NC(=O)N[C@H](C)c2ccccc2)cc2[nH]nc(NC(C)=O)c12 [Example 72, (R)—N-(4-(methoxymethyl)-6-(3-(1-phenylethyl)ureido)-1H-pyrazolo[4,3-c]pyridin-3-yl)acetamide]",106,
"C[C@@H](NC(=O)Nc1cc2[nH]nc(NC(=O)C3CCC3)c2cn1)c1ccccc1 [Example 201, N-[6-({[(1R)-1-phenylethyl]-carbamoyl}amino)-1H-pyrazolo[4,3-c]pyridin-3-yl]-cyclobutane-carboxamide]",0.5,
"CC(C)NC(=O)Nc1n[nH]c2cc(NC(=O)N[C@H](C)c3ccccc3)ncc12 [Example 218, 1-(1-methylethyl)-3-[6-({[(1R)-1-phenylethyl]-carbamoyl}amino)-1H-pyrazolo[4,3-c]pyridin-3-yl]urea]",25.1,
C[C@@H](NC(=O)Nc1cc2[nH]nc(NS(=O)(=O)C3CNC3)c2cn1)c1ccccc1 [Example 56],,191

# The remaining lines, values ahead:
IC50 [1] [nM],IC50 [2] [nM],SMILES
0.4,,"C[C@@H](O)[C@@H](NC(=O)Nc1cc2[nH]nc(N3CCc4nn(C)cc4C3)c2cn1)c1ccccc1 [Example 393, 1-[(1S,2R)-2-hydroxy-1-phenylpropyl]-3-(2′-methyl-2′,4′,6′,7′-tetrahydro-1H-3,5′-bipyrazolo[4,3-c]-pyridin-6-yl)urea]"
2.4,,"CCNc1n[nH]c2cc(NC(=O)N[C@H](C)c3cccc(Cl)c3)ncc12 [Example 246, 1-[(1R)-1-(3-chlorophenyl)ethyl]-3-[3-(ethylamino)-1H-pyrazolo[4,3-c]pyridin-6-yl]urea]"
9.3,,"C[C@@H](NC(=O)Nc1cc2[nH]nc(NCc3ccccn3)c2cn1)c1ccccc1 [Example 190, 1-[(1R)-1-phenylethyl]-3-{3-[(pyridin-2-yl-methyl)amino]-1H-pyrazolo[4,3-c]-pyridin-6-yl}urea]"
2.7,,"C[C@H]1CN(c2n[nH]c3cc(NC(=O)N[C@@H](c4ccccc4)C(C)(C)O)ncc23)C[C@H](C(F)(F)F)O1 [Example 102, 1-[(1S)-2-hydroxy-2-methyl-1-phenylpropyl]-3-{3-[(2S,6R)-2-methyl-6-(trifluoromethyl)-morpholin-4-yl]-1H-pyrazolo[4,3-c]-pyridin-6-yl}urea]"
1.8,,"C[C@@H](NC(=O)Nc1cc2[nH]nc(NCC3CC3)c2cn1)c1ccccc1 [Example 159, 1-{3-[(cyclopropyl-methyl)amino]-1H-pyrazolo[4,3-c]-pyridin-6-yl}-3-[(1R)-1-phenylethyl]urea]"
17.9,,"C=C(C)C1CC(CNc2n[nH]c3cc(NC(=O)N[C@H](C)c4ccccc4)ncc23)C1 (stereo partly drawn) [Example 180, 1-[3-({[3-(1-methylethenyl)-cyclobutyl]methyl}amino)-1H-pyrazolo[4,3-c]-pyridin-6-yl]-3-[(1R)-1-phenylethyl]urea]"
1.1,,"CC(C)OC(=O)Nc1n[nH]c2cc(NC(=O)N[C@@H](c3ccc(F)cc3)C(C)(C)O)ncc12 [Example 403, 1-methylethyl [6-({[(1S)-1-(4-fluorophenyl)-2-hydroxy-2-methyl-propyl]carbamoyl}amino)-1H-pyrazolo[4,3-c]-pyridin-3-yl]-carbamate]"
4.6,,"C[C@@H](NC(=O)Nc1cc2[nH]nc(NCc3ccccc3)c2cn1)c1ccccc1 [Example 178, 1-[3-(benzyl-amino)-1H-pyrazolo[4,3-c]-pyridin-6-yl]-3-1-[(1R)-1-phenylethyl]urea]"
,4.8,"COC[C@@H](NC(=O)Nc1cc2[nH]nc(N3CCC3)c2cn1)c1ccccc1 [Example 24, 1-(3-azetidin-1-yl-1H-pyrazolo[4,3-c]pyridin-6-yl)-3-[(1S)-2-methoxy-1-phenylethyl]urea]"
